Results: patent US12226424B2, “Target protein degradation compounds, their anti-tumor use, their intermediates and use of intermediates” (ShanghaiTech University, priority 2018, dated 2025)

These compounds were tested on CDK4/6 protein (assay: Western-blot determination of CDK4/6 protein degradation (DC50) in T-47D cells). Settings: 24 h drug treatment, read-out: DC50(nM)/T-47D cell line.
Type: cell-based, human

Row | SMILES | DC50 [nM]
1 | CC(=O)c1c(C)c2cnc(Nc3ccc(N4CCN(C(=O)CCCSc5cccc6c5CN(C5CCC(=O)NC5=O)C6=O)CC4)cn3)nc2n(C2CCCC2)c1=O (centres unmarked) [SIAIS219053, 3-(4-((4-(4-(6-((6-acetyl-8-cyclopentyl-5-methyl-7-oxo-7,8-dihydropyrido[2,3-d]pyrimidin-2-yl)amino)pyridin-3-yl)piperazin-1-yl)-4-oxobutyl)thio)-1-oxoisoindolin-2-yl)piperidine-2,6-dione] | < 1
2 | Cc1nc2c(F)cc(-c3nc(Nc4ccc(CN5CCN(C(=O)CSc6cccc7c6CN(C6CCC(=O)NC6=O)C7=O)CC5)cn4)ncc3F)cc2n1C(C)C (centres unmarked) [SIAIS262164, 3-(4-((2-(4-((6-((5-fluoro-4-(4-fluoro-1-isopropyl-2-methyl-1H-benzo[d]imidazol-6-yl)pyrimidin-2-yl)amino)pyridin-3-yl)methyl)piperazin-1-yl)-2-oxoethyl)thio)-1-oxoisoindolin-2-yl)piperidine-2,6-dione] | 0.5 to 5
3 | Cc1nc2c(F)cc(-c3nc(Nc4ccc(CN5CCN(C(=O)CCCCSc6cccc7c6CN(C6CCC(=O)NC6=O)C7=O)CC5)cn4)ncc3F)cc2n1C(C)C (centres unmarked) [SIAIS262167, 3-(4-((5-(4-((6-((5-fluoro-4-(4-fluoro-1-isopropyl-2-methyl-1H-benzo[d]imidazol-6-yl)pyrimidin-2-yl)amino)pyridin-3-yl)methyl)piperazin-1-yl)-5-oxopentyl)thio)-1-oxoisoindolin-2-yl)piperidine-2,6-dione] | 0.5 to 5
4 | Cc1nc2c(F)cc(-c3nc(Nc4ccc(CN5CCN(C(=O)CCCCCCCCCCSc6cccc7c6CN(C6CCC(=O)NC6=O)C7=O)CC5)cn4)ncc3F)cc2n1C(C)C (centres unmarked) [SIAIS262170, 3-(4-((11-(4-((6-((5-fluoro-4-(4-fluoro-1-isopropyl-2-methyl-1H-benzo[d]imidazol-6-yl)pyrimidin-2-yl)amino)pyridin-3-yl)methyl)piperazin-1-yl)-11-oxoundecyl)thio)-1-oxoisoindolin-2-yl)piperidine-2,6-dione] | 50
5 | CC(=O)c1c(C)c2cnc(Nc3ccc(N4CCN(C(=O)CCCCCSc5cccc6c5CN(C5CCC(=O)NC5=O)C6=O)CC4)cn3)nc2n(C2CCCC2)c1=O (centres unmarked) [SIAIS219054, 3-(4-((6-(4-(6-((6-acetyl-8-cyclopentyl-5-methyl-7-oxo-7,8-dihydropyrido[2,3-d]pyrimidin-2-yl)amino)pyridin-3-yl)piperazin-1-yl)-6-oxohexyl)thio)-1-oxoisoindolin-2-yl)piperidine-2,6-dione] | < 1
6 | CC(=O)c1c(C)c2cnc(Nc3ccc(N4CCN(C(=O)COCCOCCOCCOCCSc5cccc6c5C(=O)N(C5CCC(=O)NC5=O)C6=O)CC4)cn3)nc2n(C2CCCC2)c1=O (centres unmarked) [SIAIS219061, 4-((14-(4-(6-((6-acetyl-8-cyclopentyl-5-methyl-7-oxo-7,8-dihydropyrido[2,3-d]pyrimidin-2-yl)amino)pyridin-3-yl)piperazin-1-yl)-14-oxo-3,6,9,12-tetraoxatetradecyl)thio)-2-(2,6-dioxopiperidin-3-yl)isoindoline-1,3-dione] | 1 to 10
7 | Cc1nc2c(F)cc(-c3nc(Nc4ccc(CN5CCN(C(=O)COCCSc6cccc7c6CN(C6CCC(=O)NC6=O)C7=O)CC5)cn4)ncc3F)cc2n1C(C)C (centres unmarked) [SIAIS262171, 3-(4-((2-(2-(4-((6-((5-fluoro-4-(4-fluoro-1-isopropyl-2-methyl-1H-benzo[d]imidazol-6-yl)pyrimidin-2-yl)amino)pyridin-3-yl)methyl)piperazin-1-yl)-2-oxoethoxy)ethyl)thio)-1-oxoisoindolin-2-yl)piperidine-2,6-dione] | 0.5
8 | Cc1nc2c(F)cc(-c3nc(Nc4ccc(CN5CCN(CCCCCCSc6cccc7c6CN(C6CCC(=O)NC6=O)C7=O)CC5)cn4)ncc3F)cc2n1C(C)C (centres unmarked) [SIAIS262173, 3-(4-((6-(4-((6-((5-fluoro-4-(4-fluoro-1-isopropyl-2-methyl-1H-benzo[d]imidazol-6-yl)pyrimidin-2-yl)amino)pyridin-3-yl)methyl)piperazin-1-yl)hexyl)thio)-1-oxoisoindolin-2-yl)piperidine-2,6-dione] | 0.05 to 0.5

The next lines start with the values.

Row | DC50 [nM] | SMILES
9 | < 1 | CN(C)C(=O)c1cc2cnc(Nc3ccc(N4CCN(C(=O)CSc5cccc6c5CN(C5CCC(=O)NC5=O)C6=O)CC4)cn3)nc2n1C1CCCC1 (centres unmarked) [SIAIS219086, 7-cyclopentyl-2-((5-(4-(2-((2-(2,6-dioxopiperidin-3-yl)-1-oxoisoindolin-4-yl)thio)acetyl)piperazin-1-yl)pyridin-2-yl)amino)-N,N-dimethyl-7H-pyrrolo[2,3-d]pyrimidine-6-carboxamide]
10 | < 0.04 | CN(C)C(=O)c1cc2cnc(Nc3ccc(N4CCN(C(=O)CSc5cccc6c5C(=O)N(C5CCC(=O)NC5=O)C6=O)CC4)cn3)nc2n1C1CCCC1 (centres unmarked) [SIAIS219100, 7-cyclopentyl-2-((5-(4-(2-((2-(2,6-dioxopiperidin-3-yl)-1,3-dioxoisoindolin-4-yl)thio)acetyl)piperazin-1-yl)pyridin-2-yl)amino)-N,N-dimethyl-7H-pyrrolo[2,3-d]pyrimidine-6-carboxamide]
11 | 1 to 10 | CC(=O)c1c(C)c2cnc(Nc3ccc(N4CCN(C(=O)COCCOCCOCCSc5cccc6c5C(=O)N(C5CCC(=O)NC5=O)C6=O)CC4)cn3)nc2n(C2CCCC2)c1=O (centres unmarked) [SIAIS219060, 4-((2-(2-(2-(2-(4-(6-((6-acetyl-8-cyclopentyl-5-methyl-7-oxo-7,8-dihydropyrido[2,3-d]pyrimidin-2-yl)amino)pyridin-3-yl)piperazin-1-yl)-2-oxoethoxy)ethoxy)ethoxy)ethyl)thio)-2-(2,6-dioxopiperidin-3-yl)isoindoline-1,3-dione]
12 | 100 to 500 | CC(=O)c1c(C)c2cnc(Nc3ccc(N4CCN(C(=O)CS(=O)(=O)c5cccc6c5C(=O)N(C5CCC(=O)NC5=O)C6=O)CC4)cn3)nc2n(C2CCCC2)c1=O (centres unmarked) [SIAIS151056, 4-((2-(4-(6-((6-acetyl-8-cyclopentyl-5-methyl-7-oxo-7,8-dihydropyrido[2,3-d]pyrimidin-2-yl)amino)pyridin-3-yl)piperazin-1-yl)-2-oxoethyl)sulfonyl)-2-(2,6-dioxopiperidin-3-yl)isoindoline-1,3-dione]
13 | < 1 | CC(=O)c1c(C)c2cnc(Nc3ccc(N4CCN(CCSc5cccc6c5C(=O)N(C5CCC(=O)NC5=O)C6=O)CC4)cn3)nc2n(C2CCCC2)c1=O (centres unmarked) [SIAIS219063, 4-((2-(4-(6-((6-acetyl-8-cyclopentyl-5-methyl-7-oxo-7,8-dihydropyrido[2,3-d]pyrimidin-2-yl)amino)pyridin-3-yl)piperazin-1-yl)ethyl)thio)-2-(2,6-dioxopiperidin-3-yl)isoindoline-1,3-dione]
14 | < 1 | CC(=O)c1c(C)c2cnc(Nc3ccc(N4CCN(C(=O)CSc5cccc6c5CN(C5CCC(=O)NC5=O)C6=O)CC4)cn3)nc2n(C2CCCC2)c1=O (centres unmarked) [SIAIS219051, 3-(4-((2-(4-(6-((6-acetyl-8-cyclopentyl-5-methyl-7-oxo-7,8-dihydropyrido[2,3-d]pyrimidin-2-yl)amino)pyridin-3-yl)piperazin-1-yl)-2-oxoethyl)thio)-1-oxoisoindolin-2-yl)piperidine-2,6-dione]
15 | 1 to 10 | CN(C)C(=O)c1cc2cnc(Nc3ccc(N4CCN(C(=O)COCCOCCOCCOCCSc5cccc6c5CN(C5CCC(=O)NC5=O)C6=O)CC4)cn3)nc2n1C1CCCC1 (centres unmarked) [SIAIS219109, 7-cyclopentyl-2-((5-(4-(14-((2-(2,6-dioxopiperidin-3-yl)-1-oxoisoindolin-4-yl)thio)-3,6,9,12-tetraoxatetradecanoyl)piperazin-1-yl)pyridin-2-yl)amino)-N,N-dimethyl-7H-pyrrolo[2,3-d]pyrimidine-6-carboxamide]
16 | > 500 | CC(=O)c1c(C)c2cnc(Nc3ccc(N4CCN(C(=O)CCSc5cccc6c5C(=O)N(C5CCC(=O)NC5=O)C6=O)CC4)cn3)nc2n(C2CCCC2)c1=O (centres unmarked) [SIAIS184086, 4-((3-(4-(6-((6-acetyl-8-cyclopentyl-5-methyl-7-oxo-7,8-dihydropyrido[2,3-d]pyrimidin-2-yl)amino)pyridin-3-yl)piperazin-1-yl)-3-oxopropyl)thio)-2-(2,6-dioxopiperidin-3-yl)isoindoline-1,3-dione]
17 | 1 to 10 | CC(=O)c1c(C)c2cnc(Nc3ccc(N4CCN(C(=O)CCCSc5cccc6c5C(=O)N(C5CCC(=O)NC5=O)C6=O)CC4)cn3)nc2n(C2CCCC2)c1=O (centres unmarked) [SIAIS184087, 4-((4-(4-(6-((6-acetyl-8-cyclopentyl-5-methyl-7-oxo-7,8-dihydropyrido [2,3-d]pyrimidin-2-yl)amino)pyridin-3-yl)piperazin-1-yl)-4-oxobutyl)thio)-2-(2,6-dioxo Piperidin-3-yl)isoindoline-1,3-dione]
18 | < 1 | CN(C)C(=O)c1cc2cnc(Nc3ccc(N4CCN(C(=O)CCCCCCSc5cccc6c5CN(C5CCC(=O)NC5=O)C6=O)CC4)cn3)nc2n1C1CCCC1 (centres unmarked) [SIAIS219091, 7-cyclopentyl-2-((5-(4-(7-((2-(2,6-dioxopiperidin-3-yl)-1-oxoisoindolin-4-yl)thio)heptanoyl)piperazin-1-yl)pyridin-2-yl)amino)-N,N-dimethyl-7H-pyrrolo[2,3-d]pyrimidine-6-carboxamide]

Same assay, conditions: read-out: DC50(nM)/T-47D cell line, 24 h drug treatment

Row | SMILES | DC50 [nM]
19 | CN(C)C(=O)c1cc2cnc(Nc3ccc(N4CCN(C(=O)COCCSc5cccc6c5C(=O)N(C5CCC(=O)NC5=O)C6=O)CC4)cn3)nc2n1C1CCCC1 (centres unmarked) [SIAIS219111, 7-cyclopentyl-2-((5-(4-(2-(2-((2-(2,6-dioxopiperidin-3-yl)-1,3-dioxoisoindolin-4-yl)thio)ethoxy)acetyl)piperazin-1-yl)pyridin-2-yl)amino)-N,N-dimethyl-7H-pyrrolo[2,3-d]pyrimidine-6-carboxamide] | < 1
20 | CN(C)C(=O)c1cc2cnc(Nc3ccc(N4CCN(C(=O)CCCCCCSc5cccc6c5C(=O)N(C5CCC(=O)NC5=O)C6=O)CC4)cn3)nc2n1C1CCCC1 (centres unmarked) [SIAIS219105, 7-cyclopentyl-2-((5-(4-(7-((2-(2,6-dioxopiperidin-3-yl)-1,3-dioxoisoindolin-4-yl)thio)heptanoyl)piperazin-1-yl)pyridin-2-yl)amino)-N,N-dimethyl-7H-pyrrolo[2,3-d]pyrimidine-6-carboxamide] | 0.04 to 0.2
